This test has as its target T1, Sodium/potassium/calcium exchanger 4 (Homo sapiens, UniProt Q8NFF2).
T1 sequence (Q8NFF2 whole entry): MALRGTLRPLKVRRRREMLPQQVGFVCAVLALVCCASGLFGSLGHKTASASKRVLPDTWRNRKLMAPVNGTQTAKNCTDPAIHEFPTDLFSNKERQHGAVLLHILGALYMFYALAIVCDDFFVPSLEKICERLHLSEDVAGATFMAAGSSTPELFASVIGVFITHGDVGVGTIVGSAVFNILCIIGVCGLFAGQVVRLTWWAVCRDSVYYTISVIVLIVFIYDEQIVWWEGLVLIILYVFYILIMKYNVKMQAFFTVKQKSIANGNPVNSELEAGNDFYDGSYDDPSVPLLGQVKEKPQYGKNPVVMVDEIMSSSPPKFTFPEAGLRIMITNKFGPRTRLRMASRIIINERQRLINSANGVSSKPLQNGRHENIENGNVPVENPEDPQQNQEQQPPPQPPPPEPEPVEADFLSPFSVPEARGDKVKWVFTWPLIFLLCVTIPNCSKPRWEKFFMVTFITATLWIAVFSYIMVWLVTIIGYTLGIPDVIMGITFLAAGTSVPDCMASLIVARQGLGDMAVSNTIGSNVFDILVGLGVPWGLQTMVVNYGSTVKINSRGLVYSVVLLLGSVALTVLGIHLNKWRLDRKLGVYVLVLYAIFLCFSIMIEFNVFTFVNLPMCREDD
Briefly: Substrate uptake by the Sodium/Potassium/Calcium Exchanger 4 (NCKX4, SLC24A4) as assessed by Screen Questtrade mark Fluo-8 NW calcium assay kit in HEK-293 JumpIN-SLC24A4 cells (PubChem AID: 1794814). The test is classed as functional, cell-based, HEK293.

Molecules are shown by their SMILES.

Regarding `[Cl-].[K+]` [POTASSIUM CHLORIDE], the EC50 – broadly, the concentration giving half of the maximal effect – came to 174 mM.
